The text below walks through data of BindingDB's records for doi:10.1021/jm020335m (Abbott Laboratories, 2003).

Experiment [1] in a line: Inhibition of concanavalin A stimulated T-cell proliferation in human PBMCs.
Experiment [2] can be described thus: Inhibition of concanavalin A stimulated rat splenocyte proliferation.

Structures are written as SMILES.

For the molecule `C=CCC1Oc2cccc(C=C)c2-c2ccc3c(c21)C(C)=CC(C)(C)N3` (configuration not stated) [5-Allyl-2,2,4-trimethyl-10-vinyl-2,5-dihydro-1H-6-oxa-1-aza-chrysene], the EC50 in experiment [1] is over 1000 nM; in experiment [2], 90 nM.

As for `C=CCC1Oc2cccc(Cl)c2-c2ccc3c(c21)C(C)=CC(C)(C)N3` (configuration not stated) [5-Allyl-10-chloro-2,2,4-trimethyl-2,5-dihydro-1H-6-oxa-1-aza-chrysene], the EC50 was 440 nM in experiment [1] and over 1000 nM in experiment [2].

Regarding `C=CCC1Oc2cccc(OC(F)F)c2-c2ccc3c(c21)C(C)=CC(C)(C)N3` (configuration not stated) [5-Allyl-10-difluoromethoxy-2,2,4-trimethyl-2,5-dihydro-1H-6-oxa-1-aza-chrysene], the EC50 in experiment [1] is 563 nM; in experiment [2] it was 85 nM.

`C=CCC1Oc2ccc(O)c(OC)c2-c2ccc3c(c21)C(C)=CC(C)(C)N3` (configuration not stated) [5-Allyl-10-methoxy-2,2,4-trimethyl-2,5-dihydro-1H-6-oxa-1-aza-chrysen-9-ol]: the EC50 was found to be 145 nM in experiment [1] and 78 nM in experiment [2].

Regarding `C=CCC1Oc2cccc(OC)c2-c2ccc3c(c21)C(C)=CC(C)(C)N3` (configuration not stated) [5-Allyl-10-methoxy-2,2,4-trimethyl-2,5-dihydro-1H-6-oxa-1-aza-chrysene], the EC50 in experiment [1] stood at 780 nM; in experiment [2], 48 nM.

Turning to `C=CCC1Oc2cccc(NC)c2-c2ccc3c(c21)C(C)=CC(C)(C)N3` (configuration not stated) [(5-Allyl-2,2,4-trimethyl-2,5-dihydro-1H-6-oxa-1-aza-chrysen-10-yl)-methyl-amine], the EC50 is 418 nM in experiment [1] and 48 nM in experiment [2].
